{
  "source": "patent US12691124B2",
  "about": "“Methods of controlling and improving brain health” (ICAHN SCHOOL OF MEDICINE AT MOUNT SINAI, priority 2019, dated 2026)",
  "key": {"[1]": {"test_system": "primary cortical neurons", "experiment": "Hypoxia (1% O2) induced neuronal death", "assay_type": "cell-based, mouse", "conditions": "1% O2, 1 week pretreatment", "text": "While glutamate toxicity is a widely used and clinically relevant assay, there are other factors that contribute to neuronal death in vivo such as lack of oxygen which occurs after stroke or protein aggregates which are observed in many neurodegenerative disorders. To understand if the observed protective effect is specific to glutamate toxicity, neurons were exposed to either hypoxic (1% O2) environments or Aβ1-43 oligomers (FIGS. 10E and 10F).\nIBET treatment protects neurons from neurotoxin-induced cell death (FIGS. 22C-22E). Dot plots show the percentage of cells that are propidium iodide negative after different neurotoxic insults when pre-treated with either control or iBET for 1 week. 6 hours and 24 hours after 1 mM glutamate exposure are shown in FIG. 22C; 18 hours, 24 hours, and 48 hours of hypoxia (1% O2) are shown in FIG. 22D; and 48 hours and 72 hours of Aβ1-43 oligomer exposure (10 μM) are shown in FIG. 22E. Two-way repeated measures ANOVA with multiple comparisons, n=3 per group, ***p<0.001. Experiments were repeated a minimum of three times."}, "[2]": {"test_system": "BRD2 or BRD4", "experiment": "ChIP sequencing, BRD2 or BRD4 promoter occupancy versus gene expression", "assay_type": "cell-based, mouse", "procedure": "Chromatin Immunoprecipitation with Sequencing. Primary cortical neuronal cultures were washed once with PBS then fixed for 10 minutes with a 1% formaldehyde solution in PBS with protease inhibitors (Sigma #P8340) at room temperature. Fixation was quenched adding glycine to a final concentration of 0.125M (5 minutes, room temperature). 10e6 fixed cells were resuspended in 1 ml of lysis buffer (50 mM Hepes KOH, pH7.5, 140 mM NaCl, 1 mM EDTA, 10% glycerol, 0.5% NP-40, 0.25% Triton X-100) and 10 ul of protease inhibitor cocktail (PIC). Samples were rotated for 10 minutes at 4 degrees then spun at 1350 g at 4 C for 10 minutes. Pellets were resuspended in 1 ml of lysis buffer 2 (10 mM Tris-HCl pH8.0, 200 mM NaCl, 1 mM EDTA, 0.5 mM EGTA) and 10 ul PIC.). 5e6 nuclei were sonicated in lysis buffer 3 (10 mM Tris-HCl pH8.0, 100 mM NaCl, 1 mM EDTA, 0.5 mM EGTA, 0.1% Na-Deoxicholate, 0.5% N-Lauroylsarcosine) at 4 degrees for 5 cycles of 30 seconds ON/30 seconds OFF using the Diagenode bioruptor. After, 30 ul of 10% Triton-X100 was added to each sample and then spun for 15 minutes at 20,000 g at 4 degrees. Sonication efficiency was checked by running the samples on a 2% agarose gel to confirm enrichment for fragments from 200-500 bps.\nStreptavidin M-280 dynabeads were blocked with 0.5% BSA solution and coupled to 7 ug of antibody (Brd4 #Ab84778, Brd2 Bethyl #A302-583A, Pol2 Ser5 #Ab5408) for at least 8 hours at 4 degrees, rotating. Antibody-coupled beads were then added to sonicated chromatin (20e6 cells for Brd2/Brd4, 10e6 for Pol2) and incubated overnight at 4 degrees. After washing the IPs eight times with wash buffer (50 mM Hepes-KOH pH7.6, 100 mM LiCl, 1 mM EDTA, 1% NP-40, 0.7% Na-Deoxycholate) and once with TE buffer (10 mM Tris-HCl, 1 mM EDTA, 50 mM NaCl), Chromatin was eluted from magnetic beads in 200 ul elution buffer ([…] Tris-HCl pH8.0, 10 mM EDTA, 1% SDS) for 45 minutes at 65 degrees. Samples were de-crosslinked overnight at 65 degrees and proteins and RNA were removed by incubating with RNAse and proteinase k. Samples were purified using the Qiagen PCR purification kit according to the manufacturers protocol.\nSamples were end-repaired using the End-IT DNA End-Repair Kit (#ER0720). After 45 minutes incubation, samples were purified using the Qiagen PCR Clean up kit as described above. Samples were adenylated using a reaction mix (200 uM dATP, 1× Klenow buffer NEB2, Klenow Fragment (3′ to 5′ exo-), NEB M0212L) and incubating at 37 degrees for 30 minutes. After, samples were purified as above except using the Minelute columns to minimize sample loss. Adapters were ligated to samples using a reaction mix containing T4 DNA ligase buffer, Solexa adapter oligo mix and 1200 units of T4 DNA ligase. The samples were incubated according to the following PCR program: 1) 20 C for 15 min, 2) 4 C for 2 h, 3) 0.1 C/sec to 16 C, 4) 16 C for 20 min, 5) 0.1 C/sec to 4 C, 6) back to step 2 for 6 cycles. Samples were purified using the Minelute kit as described above. Samples were amplified using a reaction mix containing the Phusion HF buffer, 300 uM dNTP mix, 3% DMSO, diluted Solexa primers 1.0 and 2.0, and 1 unit of Phusion polymerase. Samples were amplified according to the following program: 1) 30 sec at 98 C, 2) 18 cycles of: 10 sec at 98 C, 30 sec at 65 C, 30 sec at 72 C, 3) 5 min 72 C. Prepared samples were then sequenced on the HiSeq 2000 platform by Rockefeller's Genomic Core Facility. Bioinformatic analysis was performed by the Shen Lab. Briefly, raw sequencing data was processed by using Illumina bcl2fastq2 Conversion Software v2.17. The ChIP-seq data was first checked for quality using the various metrics generated by FastQC. Raw sequencing reads were then aligned to the mouse mm9 genome using the default settings of Bowtie (v2.2.0)87. Only uniquely mapped reads were retained, and the alignments were subsequently filtered using the SAMtools package (v0.1.19)88 to remove duplicate reads. […]"}},
  "data": [
    {"compound": "CC(=O)N1c2ccc(-c3ccc(CN4CCCCC4)cc3)cc2[C@H](Nc2ccccc2)CC1C", "note": "(stereo in doubt) [IBET858]", "values": [
      {"measurement": "loss of neurons due to hypoxia", "setting": "[1]", "value": "significantly prevents loss of neurons"},
      {"measurement": "displacement of BET proteins from the chromatin", "setting": "[2]", "value": "displaces all three BET proteins from the chromatin"},
      {"measurement": "down-regulated genes that are bound by Brd2 or Brd4", "setting": "[2]; 1 week IBET858, 844/1391", "value": 61, "unit": "%"},
      {"measurement": "genes with increased promoter occupancy of BRD2 or BRD4 that are also transcriptionally upregulated", "setting": "[2]; 6 h IBET858", "value": 212, "unit": "genes"},
      {"measurement": "genes with reduced promoter occupancy of BRD2 or BRD4 that are also transcriptionally downregulated", "setting": "[2]; 6 h IBET858", "value": 528, "unit": "genes"},
      {"measurement": "down-regulated genes that are bound by Brd2 or Brd4", "setting": "[2]; 12 h IBET858, 733/1158", "value": 63, "unit": "%"},
      {"measurement": "gene promoters with reduced BET binding", "setting": "[2]; short-term treatment 6 h", "value": "approximately 1000 gene promoters"}
    ]}
  ]
}
